Assay results from patent publication US6156700A, “3-(1,2-Benzisothiazol- and isoxazol-5-yl)-2,4(1H,3H)-pyrimidinedione or thione and 3-(1,2-benzisothiazol- and isoxazol-5-yl)-4(3H)-pyrimidinone or thione herbicidal agents” (American Cyanmid Company, priority 1998, dated 2000).

Assays:
Conditions in all cases: 0.2500 kg/ha
[1] = tested on: Lambsquarters, Common, Chenopodium album; assay: Preemergence herbicidal evaluation, CHEAL; type: in vivo, L.
Text: (§1) Results of herbicide evaluation are expressed on a rating scale (0-9). The scale is based upon a visual observation of plant stand, vigor, malformation, size, chlorosis and overall plant appearance as compared with a control.
(§2) The preemergence herbicidal activity of the test compounds of the present invention is exemplified by the following tests in which the seeds of a variety of monocotyledonous and dicotyledonous plants are separately mixed with potting soil and planted on top of approximately one inch of soil in separate pint cups. After planting, the cups are sprayed with the selected aqueous acetone solution containing test compound in sufficient quantity to provide the equivalent of about 0.0156 to 0.500 kg per hectare of test compound per cup. The treated cups are then placed on greenhouse benches, watered and cared for in accordance with conventional greenhouse procedures. From four to five weeks after treatment, the tests are terminated and each cup is examined and rated according to the rating system provided in Example 185.
(§3) The compounds evaluated are reported by compound number given in Example 185.

[2] = tested on: Sicklepod, Cassia obtusifolia; assay: Preemergence herbicidal evaluation, CASOB; type: in vivo, L.
Text: as §1, §2, §3

[3] = tested on: Barnyardgrass, Echinochloa crus-galli; assay: Preemergence herbicidal evaluation, ECHCG; type: in vivo, (L.) Beau
Text: as §1, §2, §3

[4] = tested on: Rice, Tebonnet, Oryza sativa; assay: Preemergence herbicidal evaluation, ORYSAT; type: in vivo, (L.) Tebonnet
Text: as §1, §2, §3

[5] = tested on: Morningglory, Ivyleaf, Ipomoea hederacea; assay: Preemergence herbicidal evaluation, IPOHE; type: in vivo, (L.) Jacq.
Text: as §1, §2, §3

[6] = tested on: Ragweed, Common, Ambrosia artemisifolia; assay: Preemergence herbicidal evaluation, AMBEL; type: in vivo, L.
Text: as §1, §2, §3

[7] = tested on: Foxtail, Green, Setaria viridis; assay: Preemergence herbicidal evaluation, SETVI; type: in vivo, (L.) Beau
Text: as §1, §2, §3

[8] = tested on: Soybean, Williams, Glycine max; assay: Preemergence herbicidal evaluation, GLXMAW; type: in vivo, (L.) Merr. cv Williams
Text: as §1, §2, §3

[9] = tested on: Wheat, Winter, cv Riband, Triticum aestivum; assay: Preemergence herbicidal evaluation, TRZAWR; type: in vivo
Text: as §1, §2, §3

[10] = tested on: Velvetleaf, Abutilon theophrasti; assay: Preemergence herbicidal evaluation, ABUTH; type: in vivo, Medic.
Text: as §1, §2, §3

[11] = tested on: Galium, Galium aparine; assay: Preemergence herbicidal evaluation, GALAP; type: in vivo
Text: as §1, §2, §3

[12] = tested on: Corn, Field, Zea mays; assay: Preemergence herbicidal evaluation, ZEAMX; type: in vivo, L.
Text: as §1, §2, §3

SMILES	herbicide rating (0-9) [1]	herbicide rating (0-9) [2]	herbicide rating (0-9) [3]	herbicide rating (0-9) [4]	herbicide rating (0-9) [5]	herbicide rating (0-9) [6]	herbicide rating (0-9) [7]	herbicide rating (0-9) [8]	herbicide rating (0-9) [9]	herbicide rating (0-9) [10]	herbicide rating (0-9) [11]	herbicide rating (0-9) [12]
Cc1noc2cc(F)c(-n3c(=O)cc(C(F)(F)F)n(C)c3=O)cc12 [Compound 23, 3-(6-Fluoro-3-methyl-1,2-benzisoxazol-5-yl)-1-methyl-6-(trifluoromethyl)-2,4(1H,3H)-pyrimidinedione]	9.0	9.0	9.0	9.0	9.0	9.0	9.0	9.0	9.0	9.0	9.0	9.0
COC(=O)COc1noc2ccc(-n3c(=O)cc(C(F)(F)F)n(C)c3=O)cc12 [Compound 22, Methyl {{5-[3,6-dihydro-3-methyl-2,6-dioxo-4-(trifluoromethyl)-1(2H)-pyrimidinyl]-1,2-benzisoxazol-3-yl}oxy}acetate]	0.0	9.0	0.0	0.0	0.0	0.0	0.0	2.0	0.0	0.0	4.0	1.0
